# Test results: ChEMBL document CHEMBL1152879, “Discovery of GlyT1 inhibitors with improved pharmacokinetic properties” (Bioorg Med Chem Lett, 2009)
# The source made the active and inactive calls. The calls are words filed in the database; no cut-off is given here.
# Test system: not listed separately
# Assay: Oral bioavailability in dog at 1 mg/kg
# Type: ADME, organism-based, Canis lupus familiaris
# Conditions: in vivo
row,SMILES,bioavailability [%]
1,CCS(=O)(=O)N1CCC(CNC(=O)c2ccc(Cl)cc2Cl)(CC2CC2)CC1,38
2,CCS(=O)(=O)N1CCC(c2ccccn2)([C@H](C)NC(=O)c2ccc(Cl)cc2Cl)CC1,25

# Test system: not listed separately
# Assay: Half life in dog at 0.5 mg/kg, iv and 1 mg/kg, po
# Type: ADME, organism-based, Canis lupus familiaris
# Conditions: in vivo
row,SMILES,half-life [h]
1,CCS(=O)(=O)N1CCC(CNC(=O)c2ccc(Cl)cc2Cl)(CC2CC2)CC1,11.8
2,CCS(=O)(=O)N1CCC(c2ccccn2)([C@H](C)NC(=O)c2ccc(Cl)cc2Cl)CC1,5

# Organism: Homo sapiens
# Assay: Activity of human P-glycoprotein
# Conditions: not given
row,SMILES,Activity
1,CCS(=O)(=O)N1CCC(CNC(=O)c2ccc(Cl)cc2Cl)(CC2CC2)CC1,inactive
2,CCS(=O)(=O)N1CCC(c2ccccn2)([C@H](C)NC(=O)c2ccc(Cl)cc2Cl)CC1,inactive

# Test system: not listed separately
# Assay: Clearance in dog at 0.5 mg/kg, iv and 1 mg/kg, po
# Type: ADME, organism-based, Canis lupus familiaris
# Conditions: in vivo
row,SMILES,clearance [mL/min/kg]
1,CCS(=O)(=O)N1CCC(CNC(=O)c2ccc(Cl)cc2Cl)(CC2CC2)CC1,2.3
2,CCS(=O)(=O)N1CCC(c2ccccn2)([C@H](C)NC(=O)c2ccc(Cl)cc2Cl)CC1,3.5

# Test system: not listed separately
# Assay: Volume of distribution at steady state in dog at 0.5 mg/kg, iv and 1 mg/kg, po
# Type: ADME, organism-based, Canis lupus familiaris
# Conditions: in vivo, read-out: Vdss
row,SMILES,Vd [L/kg]
1,CCS(=O)(=O)N1CCC(CNC(=O)c2ccc(Cl)cc2Cl)(CC2CC2)CC1,2.1
2,CCS(=O)(=O)N1CCC(c2ccccn2)([C@H](C)NC(=O)c2ccc(Cl)cc2Cl)CC1,1.37

# Test system: not listed separately
# Assay: Half life in dog at 0.25 mg/kg, iv by cassette dosing
# Type: ADME, organism-based, Canis lupus familiaris
# Design: dose 0.25 mg/kg, route intravenous
# Conditions: in vivo
row,SMILES,half-life [h]
1,O=C(NCC1(c2ccccn2)CCN(S(=O)(=O)CC(F)(F)F)CC1)c1ccc(Cl)cc1Cl,4.9
2,CCCS(=O)(=O)N1CCC(CNC(=O)c2ccc(Cl)cc2Cl)(N2CCC2)CC1,< 2
3,O=C(NCC1(c2ccccn2)CCN(S(=O)(=O)C2CC2)CC1)c1ccc(Cl)cc1Cl,7.6
4,CS(=O)(=O)N1CCC(CNC(=O)c2ccc(Cl)cc2Cl)(c2ccccn2)CC1,8.4

# Now from value to compound:
row,half-life [h],SMILES
1,< 2,CCCS(=O)(=O)N1CCC(CCOC)(CNC(=O)c2ccc(Cl)cc2Cl)CC1
2,< 2,CCCS(=O)(=O)N1CCC(CNC(=O)c2ccc(Cl)cc2Cl)(CC2CCCCO2)CC1 (centres undefined)
3,< 2,CCCS(=O)(=O)N1CCC(CNC(=O)c2ccc(Cl)cc2Cl)(C2CCCCC2O)CC1 (centres undefined)

# Test system: not listed separately
# Assay: Clearance in dog at 0.25 mg/kg, iv by cassette dosing
# Type: ADME, organism-based, Canis lupus familiaris
# Design: dose 0.25 mg/kg, route intravenous
# Conditions: in vivo
row,SMILES,clearance [mL/min/kg]
1,O=C(NCC1(c2ccccn2)CCN(S(=O)(=O)CC(F)(F)F)CC1)c1ccc(Cl)cc1Cl,2.5
2,CCS(=O)(=O)N1CCC(CNC(=O)c2ccc(Cl)cc2Cl)(CC2CC2)CC1,0.84
3,CCCS(=O)(=O)N1CCC(CNC(=O)c2ccc(Cl)cc2Cl)(N2CCC2)CC1,> 15
4,CCS(=O)(=O)N1CCC(c2ccccn2)([C@H](C)NC(=O)c2ccc(Cl)cc2Cl)CC1,3.6
5,O=C(NCC1(c2ccccn2)CCN(S(=O)(=O)C2CC2)CC1)c1ccc(Cl)cc1Cl,1.7
6,CS(=O)(=O)N1CCC(CNC(=O)c2ccc(Cl)cc2Cl)(c2ccccn2)CC1,1

# Now from value to compound:
row,clearance [mL/min/kg],SMILES
1,> 15,CCCS(=O)(=O)N1CCC(CCOC)(CNC(=O)c2ccc(Cl)cc2Cl)CC1
2,> 15,CCCS(=O)(=O)N1CCC(CNC(=O)c2ccc(Cl)cc2Cl)(CC2CCCCO2)CC1 (centres undefined)
3,> 15,CCCS(=O)(=O)N1CCC(CNC(=O)c2ccc(Cl)cc2Cl)(C2CCCCC2O)CC1 (centres undefined)

# Biological target: T1, Sodium- and chloride-dependent taurine transporter (Homo sapiens, UniProt P31641)
# T1 sequence (P31641 whole entry): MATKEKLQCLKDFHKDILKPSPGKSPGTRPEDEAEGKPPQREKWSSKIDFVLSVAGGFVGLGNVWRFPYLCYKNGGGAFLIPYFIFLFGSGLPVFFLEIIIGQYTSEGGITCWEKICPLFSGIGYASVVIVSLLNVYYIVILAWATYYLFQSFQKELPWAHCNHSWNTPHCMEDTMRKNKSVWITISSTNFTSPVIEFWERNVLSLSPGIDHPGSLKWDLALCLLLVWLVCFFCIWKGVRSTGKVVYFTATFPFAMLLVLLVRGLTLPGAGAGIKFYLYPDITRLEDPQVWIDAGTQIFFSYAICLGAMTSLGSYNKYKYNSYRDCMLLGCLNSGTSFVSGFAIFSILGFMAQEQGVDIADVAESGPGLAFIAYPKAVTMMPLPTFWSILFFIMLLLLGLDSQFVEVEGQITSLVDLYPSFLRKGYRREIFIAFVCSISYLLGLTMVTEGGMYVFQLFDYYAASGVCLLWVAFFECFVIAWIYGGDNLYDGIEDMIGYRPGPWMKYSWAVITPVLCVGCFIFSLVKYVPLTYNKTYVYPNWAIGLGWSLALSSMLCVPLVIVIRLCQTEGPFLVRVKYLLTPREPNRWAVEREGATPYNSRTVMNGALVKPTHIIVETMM
# Assay: Inhibition of taurine transporter
# Conditions: not given
row,SMILES,IC50 [nM]
1,O=C(NCC1(c2ccccn2)CCN(S(=O)(=O)C2CC2)CC1)c1ccc(Cl)cc1Cl,> 30000
2,CS(=O)(=O)N1CCC(CNC(=O)c2ccc(Cl)cc2Cl)(c2ccccn2)CC1,> 30000

# More lines, now with the values ahead:
row,IC50 [nM],SMILES
1,> 30000,CCCS(=O)(=O)N1CCC(CCOC)(CNC(=O)c2ccc(Cl)cc2Cl)CC1
2,> 30000,CCCS(=O)(=O)N1CCC(CNC(=O)c2ccc(Cl)cc2Cl)(CC2CCCCO2)CC1 (centres undefined)
3,> 30000,CCCS(=O)(=O)N1CCC(CNC(=O)c2ccc(Cl)cc2Cl)(C2CCCCC2O)CC1 (centres undefined)

# Biological target: T2, Sodium- and chloride-dependent glycine transporter 1 (Homo sapiens) (UniProt P48067)
# T2 sequence (whole entry): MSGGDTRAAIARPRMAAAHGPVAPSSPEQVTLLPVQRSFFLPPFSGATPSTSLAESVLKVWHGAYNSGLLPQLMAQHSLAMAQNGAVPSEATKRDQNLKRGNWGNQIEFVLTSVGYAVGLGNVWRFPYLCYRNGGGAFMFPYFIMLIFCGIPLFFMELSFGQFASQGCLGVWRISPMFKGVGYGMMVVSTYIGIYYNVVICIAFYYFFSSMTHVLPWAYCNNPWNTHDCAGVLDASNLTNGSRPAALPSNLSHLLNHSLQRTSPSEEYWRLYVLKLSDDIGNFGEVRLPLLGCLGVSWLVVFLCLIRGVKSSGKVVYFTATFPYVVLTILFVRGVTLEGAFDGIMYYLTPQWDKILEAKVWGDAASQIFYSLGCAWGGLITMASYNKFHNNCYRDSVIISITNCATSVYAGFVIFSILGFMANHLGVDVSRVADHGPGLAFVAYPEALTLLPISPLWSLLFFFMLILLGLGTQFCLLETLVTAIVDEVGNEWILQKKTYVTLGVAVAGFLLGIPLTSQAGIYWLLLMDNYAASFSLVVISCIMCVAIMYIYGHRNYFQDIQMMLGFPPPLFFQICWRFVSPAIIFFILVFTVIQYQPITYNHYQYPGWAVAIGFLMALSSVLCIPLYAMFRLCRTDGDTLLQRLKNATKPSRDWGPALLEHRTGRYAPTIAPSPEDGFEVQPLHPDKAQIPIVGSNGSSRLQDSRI
# Assay: (§1) Inhibition of Glyt1
# Conditions: not given
row,SMILES,Activity [nM]
1,CCS(=O)(=O)N1CCC(c2ccccn2)([C@H](C)NC(=O)c2ccc(Cl)cc2Cl)CC1,11

# Biological target: T3, Sodium- and chloride-dependent glycine transporter 1 (Homo sapiens, UniProt P48067)
# T3 sequence (P48067 whole entry): T2 sequence (whole entry)
# Assay: as §1
# Conditions: not given
row,SMILES,IC50 [nM]
1,O=C(NCC1(c2ccccn2)CCN(S(=O)(=O)CC(F)(F)F)CC1)c1ccc(Cl)cc1Cl,1070
2,CCCS(=O)(=O)N1CCC(CNC(=O)c2ccc(Cl)cc2Cl)(N2CCC2)CC1,38.1
3,O=C(NCC1(c2ccccn2)CCN(S(=O)(=O)C2CC2)CC1)c1ccc(Cl)cc1Cl,200
4,CS(=O)(=O)N1CCC(CNC(=O)c2ccc(Cl)cc2Cl)(c2ccccn2)CC1,300

# Other lines, results leading:
row,IC50 [nM],SMILES
1,26.5,CCCS(=O)(=O)N1CCC(CCOC)(CNC(=O)c2ccc(Cl)cc2Cl)CC1
2,2.9,CCCS(=O)(=O)N1CCC(CNC(=O)c2ccc(Cl)cc2Cl)(CC2CCCCO2)CC1 (centres undefined)
3,2.8,CCCS(=O)(=O)N1CCC(CNC(=O)c2ccc(Cl)cc2Cl)(C2CCCCC2O)CC1 (centres undefined)

# Test system: MDR1 (human)
# Assay: Passive permeability from apical to basolateral side of pig LLC-PK1 cells expressing human MDR1
# Type: ADME, cell-based, Sus scrofa
# Conditions: read-out: permeability
row,SMILES,Papp A→B [×10⁻⁶ cm/s]
1,CCS(=O)(=O)N1CCC(c2ccccn2)([C@H](C)NC(=O)c2ccc(Cl)cc2Cl)CC1,37

# Test system: Rattus norvegicus
# Assay: In vivo plasma occupancy by displacement of [35S]ACPPB from rat GlyT1 in po dosed rat brain
# Type: functional
# Conditions: not given
row,SMILES,Occ50 [nM]
1,CCS(=O)(=O)N1CCC(CNC(=O)c2ccc(Cl)cc2Cl)(CC2CC2)CC1,260
2,CCS(=O)(=O)N1CCC(c2ccccn2)([C@H](C)NC(=O)c2ccc(Cl)cc2Cl)CC1,150

# Biological target: T4, Sodium- and chloride-dependent glycine transporter 2 (Homo sapiens, UniProt Q9Y345)
# T4 sequence (Q9Y345 whole entry): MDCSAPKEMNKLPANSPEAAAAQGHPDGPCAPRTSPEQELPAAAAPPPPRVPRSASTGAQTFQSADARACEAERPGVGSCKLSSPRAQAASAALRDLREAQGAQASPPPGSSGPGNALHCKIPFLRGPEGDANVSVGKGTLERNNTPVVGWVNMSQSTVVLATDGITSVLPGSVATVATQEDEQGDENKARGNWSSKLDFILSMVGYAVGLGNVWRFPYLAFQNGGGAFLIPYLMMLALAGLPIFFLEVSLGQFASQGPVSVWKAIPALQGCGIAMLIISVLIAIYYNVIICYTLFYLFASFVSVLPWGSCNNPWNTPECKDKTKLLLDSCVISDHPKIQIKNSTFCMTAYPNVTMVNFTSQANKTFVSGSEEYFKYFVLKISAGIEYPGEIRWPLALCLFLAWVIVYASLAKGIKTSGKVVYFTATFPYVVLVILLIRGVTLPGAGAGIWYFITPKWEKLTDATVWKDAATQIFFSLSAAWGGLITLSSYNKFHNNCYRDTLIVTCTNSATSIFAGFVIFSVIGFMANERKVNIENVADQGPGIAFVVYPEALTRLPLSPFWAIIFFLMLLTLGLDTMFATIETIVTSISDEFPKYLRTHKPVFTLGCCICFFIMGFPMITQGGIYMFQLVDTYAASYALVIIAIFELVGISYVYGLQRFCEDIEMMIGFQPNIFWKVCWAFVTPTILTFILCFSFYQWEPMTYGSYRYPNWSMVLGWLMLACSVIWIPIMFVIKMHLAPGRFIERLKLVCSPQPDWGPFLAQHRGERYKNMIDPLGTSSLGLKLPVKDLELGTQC
# Assay: Inhibition of Glyt2
# Conditions: not given
row,SMILES,IC50 [nM]
1,O=C(NCC1(c2ccccn2)CCN(S(=O)(=O)C2CC2)CC1)c1ccc(Cl)cc1Cl,> 30000
2,CS(=O)(=O)N1CCC(CNC(=O)c2ccc(Cl)cc2Cl)(c2ccccn2)CC1,> 30000

# Other lines, results leading:
row,IC50 [nM],SMILES
1,> 30000,CCCS(=O)(=O)N1CCC(CCOC)(CNC(=O)c2ccc(Cl)cc2Cl)CC1
2,> 30000,CCCS(=O)(=O)N1CCC(CNC(=O)c2ccc(Cl)cc2Cl)(CC2CCCCO2)CC1 (centres undefined)
3,> 30000,CCCS(=O)(=O)N1CCC(CNC(=O)c2ccc(Cl)cc2Cl)(C2CCCCC2O)CC1 (centres undefined)

# Organism: Rattus norvegicus
# Assay: Activity of rat P-glycoprotein
# Conditions: not given
row,SMILES,Activity
1,CCS(=O)(=O)N1CCC(CNC(=O)c2ccc(Cl)cc2Cl)(CC2CC2)CC1,inactive
2,CCS(=O)(=O)N1CCC(c2ccccn2)([C@H](C)NC(=O)c2ccc(Cl)cc2Cl)CC1,inactive
